US20230149408A1, “INHIBITORS OF HUMAN IMMUNODEFICIENCY VIRUS REPLICATION” (VIIV HEALTHCARE UK (No. 5) LIMITED, priority 2020, published 2023)
Read-outs that look alike come from different tables or passages of the source.

Columns and labels:
Type in all cases: cell-based
recombinant NL4-3 virus = experiment: HIV cell culture assay: antiviral activity toward recombinant NL4-3 Renilla luciferase virus in MT-2 cells
Method: HIV cell culture assay - MT-2 cells, 293T cells and the proviral DNA clone of NL4-3 virus were obtained from the NIH AIDS Research and Reference Reagent Program. MT-2 cells were propagated in RPMI 1640 media supplemented with 10% heat inactivated fetal bovine serum (FBS), […]. The 293T cells were propagated in DMEM media supplemented with 10% heat inactivated FBS, […]. A recombinant NL4-3 proviral clone, in which a section of the nef gene was replaced with the Renilla luciferase gene, was used to make the reference virus used in these studies. The recombinant virus was prepared through transfection of the recombinant NL4-3 proviral clone into 293T cells using Transit-293 Transfection Reagent from Mirus Bio LLC (Madison, WI). Supernatent was harvested after 2-3 days and the amount of virus present was titered in MT-2 cells using luciferase enzyme activity as a marker by measuring luciferase enzyme activity. Luciferase was quantitated using the EnduRen Live Cell Substrate from Promega (Madison, WI). Antiviral activities of compounds toward the recombinant virus were quantified by measuring luciferase activity in MT-2 cells infected for 4-5 days with the recombinant virus in the presence of serial dilutions of the compound.
The 50% effective concentration (EC50) was calculated by using the exponential form of the median effect equation where (Fa) = 1/[1+ (ED50/drug conc.)m] (Johnson VA, Byington RT. Infectivity Assay. In Techniques in HIV Research. ed. Aldovini A, Walker BD. 71-76. New York: Stockton Press.1990). The 50% inhibitory concentration (EC50) was calculated by using the exponential form of the median effect equation where percent inhibition = 1/[1 + (EC50/drug concentration)m], where m is a parameter that reflects the slope of the concentration-response curve.

[1] = Compound cytotoxicity, XTT-based colorimetric assay; conditions: human; uninfected MT2 cells, day 4, XTT
Method: (§1) Compound cytotoxicity and the corresponding CC50 values were determined using the same protocol as described in the antiviral assay except that uninfected cells were used. Cytotoxicity was assessed on day 4 in uninfected MT2 cells by using a XTT (2,3-bis[2-Methoxy-4-nitro-5-sulfophenyl]-2H-tetrazolium-5-carboxyanilide inner salt)-based colorimetric assay (Sigma-Aldrich, St Louis, Mo).

uninfected MT2 cells = experiment: as above; conditions: day 4, XTT
Method: as §1

[2] = Human immunodeficiency virus 1, NL43, MT2

| SMILES | EC50 (recombinant NL4-3 virus; [2]) [nM] | CC50 at 4 day [1] [nM] | EC50 (recombinant NL4-3 virus; MT-2 cells infected 4-5 days, luciferase activity, read-out: EC50) [nM] | CC50 (uninfected MT2 cells) [nM] |
| --- | --- | --- | --- | --- |
| Cn1nc(NS(C)(=O)=O)c2c(Cl)ccc(-n3c([C@H](Cc4cc(F)cc(F)c4)NC(=O)Cn4nc(C(F)F)c5c4C(F)(F)[C@@H]4C[C@H]54)nc4nc(OCCC(F)(F)F)ccc4c3=O)c21 (atropisomer, axis not shown; (P)) [Example 4, N-(1-((6P)-3-(4-chloro-1-methyl-3-(methylsulfonamido)-1H-indazol-7-yl)-4-oxo-7-(3,3,3-trifluoropropoxy)-3,4-dihydropyrido[2,3-d]pyrimidin-2-yl)-2-(3,5-difluorophenyl)ethyl)-2-((3bS,4aR)-3-(difluoromethyl)-5,5-difluoro-3b,4,4a,5-tetrahydro-1H-cyclopropa[3,4]cyclopenta[1,2-c]pyrazol-1-yl)acetamide] | 0.025 | > 500 |  |  |
| Cn1nc(NS(C)(=O)=O)c2c(Cl)ccc(-n3c([C@H](Cc4cc(F)cc(F)c4)NC(=O)Cn4nc(C(F)F)c5c4C(F)(F)[C@@H]4C[C@H]54)nc4cc(-c5nccc(C(F)F)n5)ccc4c3=O)c21 (single isomer, unassigned) [Example 2] | 0.043 | > 20000 |  |  |
| Cn1nc(NS(C)(=O)=O)c2cccc(-n3c([C@H](Cc4cc(F)cc(F)c4)NC(=O)Cn4nc(C(F)F)c5c4C(F)(F)[C@@H]4C[C@H]54)nc4nc(OCCC(C)(F)F)ccc4c3=O)c21 (single isomer, unassigned) [Example 3] | 0.019 | > 20000 |  |  |
| Cn1nc(NS(C)(=O)=O)c2c(Cl)ccc(-n3c([C@H](Cc4cc(F)cc(F)c4)NC(=O)Cn4nc(C(F)F)c5c4C(F)(F)[C@@H]4C[C@H]54)nc4cc(-c5cccc(C(F)(F)F)n5)ccc4c3=O)c21 [Example 1, N-((S)-1-((3P)-3-(4-chloro-1-methyl-3-(methylsulfonamido)-1H-indazol-7-yl)-4-oxo-7-(6-(trifluoromethyl)pyridin-2-yl)-3,4-dihydroquinazolin-2-yl)-2-(3,5-difluorophenyl)ethyl)-2-((3bS,4aR)-3-(difluoromethyl)-5,5-difluoro-3b,4,4a,5-tetrahydro-1H-cyclopropa[3,4]cyclopenta[1,2-c]pyrazol-1-yl)acetamide] |  |  | 0.093 | > 20000 |
